According to ChEMBL document CHEMBL1152592, “Design, synthesis and biological evaluations of novel 7-[3-(1-aminocycloalkyl)pyrrolidin-1-yl]-6-desfluoro-8-methoxyquinolones with potent antibacterial activity against multi-drug resistant Gram-positive bacteria” (Bioorg Med Chem, 2009):
In brackets after ≈: the same amount, converted by molar mass.

Columns and labels:
[1] = AUC (0 to 6 hrs) in cynomolgus monkey serum at 20 mg/kg, iv; assay type: ADME, organism-based, Macaca fascicularis, Plasma; set-up: time < 6 hr, dose 20 mg/kg, route intravenous
Mus musculus [2] = experiment: Toxicity in Slc:ddY mouse assessed as micronucleated reticulocyte in blood at 150 mg/kg, iv after 48 hrs of treatment by fluorescence microscopy; assay type: organism-based; set-up: dose 150 mg/kg, route intravenous; conditions: in vivo
[3] = Half life in Crj:CD rat lung at 20 mg/kg, iv; assay type: ADME, organism-based; set-up: dose 20 mg/kg, route intravenous
Streptococcus mitis = experiment: Antibacterial activity against Streptococcus mitis IID685 after 18 hrs by twofold microbroth dilution method; assay type: functional; conditions: IID685, 18 h
Staphylococcus aureus [4] = experiment: Antibacterial activity against ciprofloxacin, methicillin-resistant Staphylococcus aureus after 18 hrs by twofold microbroth dilution method; assay type: functional
[5] = Aqueous […] of the compound; assay type: physicochemical; conditions: aqueous (not further specified)
[6] = Half life in Crj:CD rat kidney at 20 mg/kg, iv; assay type: ADME, organism-based; set-up: dose 20 mg/kg, route intravenous
[7] = AUC (0 to 6 hrs) in Crj:CD rat lung at 20 mg/kg, iv; assay type: ADME, organism-based; set-up: time < 6 hr, dose 20 mg/kg, route intravenous
[8] = AUC (0 to 6 hrs) in Crj:CD rat kidney at 20 mg/kg, iv; assay type: ADME, organism-based; set-up: time < 6 hr, dose 20 mg/kg, route intravenous
[9] = Ratio of AUC (0 to 6 hrs) liver to serum in Crj:CD rat […] at 20 mg/kg, iv; assay type: ADME, organism-based; set-up: dose 20 mg/kg, route intravenous
[10] = Half life in Crj:CD rat serum at 20 mg/kg, iv; assay type: ADME, organism-based; set-up: dose 20 mg/kg, route intravenous
[11] = Cmax in Crj:CD rat serum at 20 mg/kg, po; assay type: ADME, organism-based; set-up: dose 20 mg/kg, route oral
[12] = Ratio of AUC (0 to 6 hrs) kidney to serum in Crj:CD rat […] at 20 mg/kg, iv; assay type: ADME, organism-based; set-up: dose 20 mg/kg, route intravenous
[13] = Cmax in cynomolgus monkey serum at 20 mg/kg, iv; assay type: ADME, organism-based, Macaca fascicularis; set-up: dose 20 mg/kg, route intravenous
Staphylococcus aureus [14] = experiment: Antibacterial activity against Staphylococcus aureus FDA 209-P after 18 hrs by twofold microbroth dilution method; assay type: functional
Staphylococcus aureus [15] = experiment: Antibacterial activity against levofloxacin, methicillin-resistant Staphylococcus aureus after 18 hrs by twofold microbroth dilution method; assay type: functional
[16] = Oral bioavailability in Crj:CD rat serum at 20 mg/kg; assay type: ADME, organism-based
[17] = Half life in cynomolgus monkey serum at 20 mg/kg, po; assay type: ADME, organism-based, Macaca fascicularis; set-up: dose 20 mg/kg, route oral
Mus musculus [18] = experiment: Toxicity in Slc:ddY mouse at 100 mg/kg, iv; assay type: organism-based; set-up: dose 100 mg/kg, route intravenous; conditions: in vivo
[19] = Cmin in Crj:CD rat serum at 20 mg/kg, iv after 5 mins; assay type: ADME, organism-based; set-up: dose 20 mg/kg, route intravenous; conditions: read-out: Cmin
Klebsiella pneumoniae = experiment: Antibacterial activity against Klebsiella pneumoniae type 2 after 18 hrs by twofold microbroth dilution method; assay type: functional; conditions: type 2, 18 h
Enterococcus faecium = experiment: Antibacterial activity against vancomycin-resistant Enterococcus faecium after 18 hrs by twofold microbroth dilution method; assay type: functional
[20] = Half life in Crj:CD rat serum at 20 mg/kg, po; assay type: ADME, organism-based; set-up: dose 20 mg/kg, route oral
[21] = Inhibition of Staphylococcus aureus DNA topoisomerase 4 Ser80Phe mutant
Enterococcus faecalis [22] = experiment: Antibacterial activity against vancomycin-resistant Enterococcus faecalis after 18 hrs by twofold microbroth dilution method; assay type: functional
[23] = Cmax in cynomolgus monkey serum at 20 mg/kg, po; assay type: ADME, organism-based, Macaca fascicularis; set-up: dose 20 mg/kg, route oral
Staphylococcus aureus [24] = experiment: Selectivity ratio of IC50 for Staphylococcus aureus DNA gyrase Ser84Leu mutant to IC50 for Staphylococcus aureus wild type DNA gyrase
[25] = Half life in cynomolgus monkey serum at 20 mg/kg, iv; assay type: ADME, organism-based, Macaca fascicularis; set-up: dose 20 mg/kg, route intravenous
DNA gyrase subunit A = DNA gyrase subunit A (Staphylococcus aureus, UniProt P20831, S84L); experiment: Inhibition of Staphylococcus aureus DNA gyrase Ser84Leu mutant
[26] = AUC (0 to 6hrs) in Crj:CD rat serum at 20 mg/kg, po; assay type: ADME, organism-based; set-up: time < 6 hr, dose 20 mg/kg, route oral
[27] = Inhibition of Staphylococcus aureus wild type DNA topoisomerase 4
Staphylococcus aureus [28] = experiment: Selectivity ratio of IC50 for Staphylococcus aureus DNA topoisomerase 4 Ser80Phe mutant to IC50 for Staphylococcus aureus wild type DNA topoisomerase 4
Streptococcus pyogenes = experiment: Antibacterial activity against Streptococcus pyogenes G-36 after 18 hrs by twofold microbroth dilution method; assay type: functional; conditions: G-36, 18 h
Streptococcus pneumoniae [29] = experiment: Antibacterial activity against Streptococcus pneumoniae J-24 after 18 hrs by twofold microbroth dilution method; assay type: functional; conditions: J-24, 18 h
[30] = Half life in Crj:CD rat liver at 20 mg/kg, iv; assay type: ADME, organism-based; set-up: dose 20 mg/kg, route intravenous
[31] = Cmin in Crj:CD rat liver at 20 mg/kg, iv after 5 mins; assay type: ADME, organism-based; set-up: dose 20 mg/kg, route intravenous; conditions: read-out: Cmin
[32] = Ratio of AUC (0 to 6 hrs) lung to serum in Crj:CD rat lung at 20 mg/kg, iv; assay type: ADME, organism-based; set-up: dose 20 mg/kg, route intravenous
Enterococcus faecalis [33] = experiment: Antibacterial activity against Enterococcus faecalis ATCC 19433 after 18 hrs by twofold microbroth dilution method; assay type: functional; conditions: ATCC19433, 18 h
[34] = Oral bioavailability in cynomolgus monkey serum at 20 mg/kg; assay type: ADME, organism-based, Macaca fascicularis
[35] = Cmin in Crj:CD rat kidney at 20 mg/kg, iv after 5 mins; assay type: ADME, organism-based; set-up: dose 20 mg/kg, route intravenous; conditions: read-out: Cmin
[36] = AUC (0 to 6 hrs) in Crj:CD rat serum at 20 mg/kg, iv; assay type: ADME, organism-based; set-up: time < 6 hr, dose 20 mg/kg, route intravenous
DNA gyrase = DNA gyrase (Staphylococcus aureus, UniProt P0A0K8+P20831); experiment: Inhibition of Staphylococcus aureus wild type DNA gyrase; assay type: protein-complex assay
[37] = AUC (0 to 6 hrs) in Crj:CD rat liver at 20 mg/kg, iv; assay type: ADME, organism-based; set-up: time < 6 hr, dose 20 mg/kg, route intravenous
Pseudomonas aeruginosa = experiment: Antibacterial activity against Pseudomonas aeruginosa PAO1 after 18 hrs by twofold microbroth dilution method; assay type: functional; conditions: PAO1, 18 h
[38] = AUC (0 to 6 hrs) in cynomolgus monkey serum at 20 mg/kg, po; assay type: ADME, organism-based, Macaca fascicularis, Plasma; set-up: time < 6 hr, dose 20 mg/kg, route oral
Streptococcus pneumoniae [39] = experiment: Antibacterial activity against penicillin-intermediate resistant Streptococcus pneumoniae after 18 hrs by twofold microbroth dilution method; assay type: functional
Escherichia coli = experiment: Antibacterial activity against Escherichia coli NIHJ after 18 hrs by twofold microbroth dilution method; assay type: functional
[40] = Cmin in Crj:CD rat lung at 20 mg/kg, iv after 5 mins; assay type: ADME, organism-based; set-up: dose 20 mg/kg, route intravenous; conditions: read-out: Cmin
[41] = tested on: Staphylococcus epidermidis; experiment: Antibacterial activity against Staphylococcus epidermidis 56500 after 18 hrs by twofold microbroth dilution method; assay type: functional; conditions: Staphylococcus epidermidis, 56500, 18 h
Mus musculus [42] = experiment: Toxicity in Slc:ddY mouse assessed as micronucleated reticulocyte in blood at 50 mg/kg, iv after 48 hrs of treatment by fluorescence microscopy; assay type: organism-based; set-up: dose 50 mg/kg, route intravenous; conditions: in vivo
Mus musculus [43] = experiment: Toxicity in Slc:ddY mouse at 50 mg/kg, iv; assay type: organism-based; set-up: dose 50 mg/kg, route intravenous; conditions: in vivo
Mus musculus [44] = experiment: Toxicity in Slc:ddY mouse at 150 mg/kg, iv; assay type: organism-based; set-up: dose 150 mg/kg, route intravenous; conditions: in vivo

SMILES: COc1c(N2CC[C@@H](C3(N)CC3)C2)ccc2c(=O)c(C(=O)O)cn([C@@H]3C[C@@H]3F)c12
- AUC(0-t) at 6 h [1]: 64400 ng·h/mL
- Activity (Mus musculus [2]): Toxic
- half-life [3]: 1.2 h
- MIC (Streptococcus mitis): 0.003 µg/mL (≈ 0.00747 µM)
- MIC50 (Staphylococcus aureus [4]): 0.06 µg/mL (≈ 0.149 µM)
- MIC90 (Staphylococcus aureus [4]): 0.5 µg/mL (≈ 1.25 µM)
- solubility [5]: 480 µg/mL (≈ 1200 µM)
- half-life [6]: 1.4 h
- AUC(0-t) at 6 h [7]: 45500 ng·h/mL
- AUC(0-t) at 6 h [8]: 64400 ng·h/mL
- Kp [9]: 4.6
- half-life [10]: 1.2 h
- Cmax [11]: 6700 ng/mL
- Kp [12]: 4.4
- Cmax [13]: 12300 ng/mL
- MIC (Staphylococcus aureus [14]): ≤ 0.003 µg/mL
- MIC50 (Staphylococcus aureus [15]): 0.12 µg/mL (≈ 0.299 µM)
- MIC80 (Staphylococcus aureus [15]): 1 µg/mL (≈ 2.49 µM)
- MIC90 (Staphylococcus aureus [15]): 1 µg/mL (≈ 2.49 µM)
- bioavailability [16]: 67.4%
- half-life [17]: 6 h
- Activity (Mus musculus [18]): Non-toxic
- concentration at 5 min [19]: 11000 ng/mL
- MIC (Klebsiella pneumoniae): 0.05 µg/mL (≈ 0.125 µM)
- MIC50 (Enterococcus faecium): 0.25 µg/mL (≈ 0.623 µM)
- MIC90 (Enterococcus faecium): 2 µg/mL (≈ 4.98 µM)
- half-life [20]: 1.3 h
- IC50 [21]: 1.76 µg/mL (≈ 4.38 µM)
- MIC50 (Enterococcus faecalis [22]): 0.25 µg/mL (≈ 0.623 µM)
- MIC90 (Enterococcus faecalis [22]): 0.5 µg/mL (≈ 1.25 µM)
- Cmax [23]: 3700 ng/mL
- Ratio IC50 (Staphylococcus aureus [24]): 9.35
- half-life [25]: 4.4 h
- IC50 (DNA gyrase subunit A): 19.5 µM
- AUC(0-t) at 6 h [26]: 9800 ng·h/mL
- IC50 [27]: 0.309 µg/mL (≈ 0.77 µM)
- Ratio IC50 (Staphylococcus aureus [28]): 5.7
- MIC (Streptococcus pyogenes): 0.006 µg/mL (≈ 0.0149 µM)
- MIC (Streptococcus pneumoniae [29]): 0.006 µg/mL (≈ 0.0149 µM)
- half-life [30]: 1.1 h
- concentration at 5 min [31]: 48500 ng/mL
- Kp [32]: 3.1
- MIC (Enterococcus faecalis [33]): 0.025 µg/mL (≈ 0.0623 µM)
- bioavailability [34]: 58.2%
- concentration at 5 min [35]: 47200 ng/mL
- AUC(0-t) at 6 h [36]: 14500 ng·h/mL
- IC50 (DNA gyrase): 2.08 µM
- AUC(0-t) at 6 h [37]: 66100 ng·h/mL
- MIC (Pseudomonas aeruginosa): 0.39 µg/mL (≈ 0.972 µM)
- AUC(0-t) at 6 h [38]: 37500 ng·h/mL
- MIC50 (Streptococcus pneumoniae [39]): 0.03 µg/mL (≈ 0.0747 µM)
- MIC90 (Streptococcus pneumoniae [39]): 0.03 µg/mL (≈ 0.0747 µM)
- MIC (Escherichia coli): ≤ 0.003 µg/mL
- concentration at 5 min [40]: 32400 ng/mL
- MIC [41]: 0.006 µg/mL (≈ 0.0149 µM)

SMILES: COc1c(N2CC[C@@H]([C@H](C)N)C2)ccc2c(=O)c(C(=O)O)cn(C3CC3)c12
- Activity (Mus musculus [42]): Toxic
- MIC (Streptococcus mitis): 0.006 µg/mL (≈ 0.0162 µM)
- solubility [5]: > 10000 µg/mL
- Activity (Mus musculus [43]): Non-toxic
- Activity (Mus musculus [44]): Toxic
- MIC (Staphylococcus aureus [14]): ≤ 0.003 µg/mL
- MIC50 (Staphylococcus aureus [15]): 0.5 µg/mL (≈ 1.35 µM)
- MIC80 (Staphylococcus aureus [15]): 8 µg/mL (≈ 21.5 µM)
- MIC90 (Staphylococcus aureus [15]): 8 µg/mL (≈ 21.5 µM)
- Activity (Mus musculus [18]): Toxic
- MIC (Klebsiella pneumoniae): 0.1 µg/mL (≈ 0.269 µM)
- MIC (Streptococcus pyogenes): 0.012 µg/mL (≈ 0.0323 µM)
- MIC (Streptococcus pneumoniae [29]): ≤ 0.003 µg/mL
- MIC (Enterococcus faecalis [33]): 0.05 µg/mL (≈ 0.135 µM)
- MIC (Pseudomonas aeruginosa): 0.2 µg/mL (≈ 0.538 µM)
- MIC (Escherichia coli): 0.012 µg/mL (≈ 0.0323 µM)
- MIC [41]: 0.006 µg/mL (≈ 0.0162 µM)
